Results published in the supplement of paper PMC10307832.

Compound: N#CC1(c2ccc(NC(=O)c3cccnc3NCc3ccncc3)cc2)CCCC1 [Apatinib] + N=C(N)NC(=N)NCCc1ccccc1 [Phenformin] (partner 250 µM)
Assay: relative viability (nuclei count vs DMSO), 5 days (fraction); higher = more cells survive
Settings: first compound 0.08 µM
Procedure, shortened: (§1)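 Relative viability divides the nuclei count in treated wells by that in vehicle wells. Lung cancer cell lines were seeded in 1536-well plates, dosed by pin tool the next day, and fixed and stained after 5 days in one step with final 0.05% Triton X-100, 1% formaldehyde and 1 ug/ml Hoechst. Dosing was a single drug or a fixed anchor-drug dose plus five library-drug doses (not always all listed) in √10 steps, and values are medians of duplicate plates imaged at 4×.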

Cell Line	relative viability
EPLC-272H	0.325
H3255	0.393
HARA	0.424
HCC-15	0.472
HCC-44	0.153
HCC-78	0.644
HCC-366	0.635
HCC-827	0.4
HOP-62	0.646
LC-2-ad	0.539
LCLC-97TM1	0.411
LCLC-103H	0.363
LK-2	0.485
LOU-NH91	0.651
LU99A	0.914
LXF-289	0.543
NCI-H23	0.851
NCI-H322M	0.831
NCI-H358	0.316
NCI-H441	0.849
NCI-H520	0.661
NCI-H596	0.801
NCI-H1563	0.642
NCI-H1623	0.601

Same assay, conditions: first compound 0.253 µM

Cell Line	relative viability
201T	0.448
A549	0.219
A-427	0.387
ABC-1	0.264
BEN	0.255
CAL-12T	0.638
COR-L23	0.421
COR-L 105	0.598
ChaGo-K-1	0.528
EKVX	0.228
EMC-BAC-2	0.568
H3255	0.398
HARA	0.455
HCC-15	0.512
HCC-44	0.17
HCC-78	0.607
HCC-366	0.61

Cell Line	relative viability
HCC-827	0.406
HOP-62	0.646
LC-2-ad	0.579
LCLC-97TM1	0.409
LCLC-103H	0.31
LK-2	0.51
LOU-NH91	0.73
LU99A	1.01
LXF-289	0.527
NCI-H23	0.733
NCI-H322M	0.76
NCI-H358	0.353
NCI-H441	0.762
NCI-H520	0.567
NCI-H596	0.724
NCI-H1563	0.705
NCI-H1623	0.624

Same assay, conditions: first compound 0.8 µM

Cell Line	relative viability
201T	0.413
A549	0.144
A-427	0.254
ABC-1	0.234
BEN	0.25
CAL-12T	0.565
COR-L23	0.427
COR-L 105	0.426
ChaGo-K-1	0.425
EKVX	0.234
EMC-BAC-2	0.463
EPLC-272H	0.318
H3255	0.343
HARA	0.391
HCC-15	0.435
HCC-44	0.309
HCC-78	0.691
HCC-366	0.578

Cell Line	relative viability
HCC-827	0.212
HOP-62	0.638
LC-2-ad	0.517
LCLC-97TM1	0.424
LCLC-103H	0.316
LK-2	0.467
LOU-NH91	0.631
LU99A	0.816
LXF-289	0.519
NCI-H23	0.735
NCI-H322M	0.778
NCI-H358	0.321
NCI-H441	0.827
NCI-H520	0.56
NCI-H596	0.723
NCI-H1563	0.75
NCI-H1623	0.636

Same assay, conditions: first compound 2.53 µM

Cell Line	relative viability
201T	0.33
A549	0.125
A-427	0.3
ABC-1	0.217
BEN	0.232
CAL-12T	0.542
COR-L23	0.395
COR-L 105	0.45
ChaGo-K-1	0.424
EKVX	0.216
EMC-BAC-2	0.383
EPLC-272H	0.333
H3255	0.358
HARA	0.28
HCC-15	0.39
HCC-44	0.22
HCC-78	0.605
HCC-366	0.525

Cell Line	relative viability
HCC-827	0.382
HOP-62	0.625
LC-2-ad	0.539
LCLC-97TM1	0.404
LCLC-103H	0.297
LK-2	0.287
LOU-NH91	0.659
LU99A	0.799
LXF-289	0.496
NCI-H23	0.717
NCI-H322M	0.814
NCI-H358	0.377
NCI-H441	0.784
NCI-H520	0.391
NCI-H596	0.705
NCI-H1563	0.517
NCI-H1623	0.511

Same assay, conditions: first compound 8 µM

Cell Line	relative viability
201T	0.405
A549	0.0802
A-427	0.234
ABC-1	0.249
BEN	0.25
CAL-12T	0.467
COR-L23	0.438
COR-L 105	0.337
ChaGo-K-1	0.428
EKVX	0.234
EMC-BAC-2	0.39
EPLC-272H	0.265
H3255	0.32
HARA	0.298
HCC-15	0.371
HCC-44	0.203
HCC-78	0.618
HCC-366	0.456

Cell Line	relative viability
HCC-827	0.351
HOP-62	0.577
LC-2-ad	0.582
LCLC-97TM1	0.37
LCLC-103H	0.308
LK-2	0.258
LOU-NH91	0.665
LU99A	0.813
LXF-289	0.468
NCI-H23	0.705
NCI-H322M	0.784
NCI-H358	0.383
NCI-H441	0.76
NCI-H520	0.391
NCI-H596	0.711
NCI-H1563	0.623
NCI-H1623	0.616

Compound: CN(C)C(=N)NC(=N)N [Metformin] + N=C(N)NC(=N)NCCc1ccccc1 [Phenformin] (partner 250 µM)
Assay: as above
Settings: first compound 10 µM
Procedure, shortened: as §1

Cell Line	relative viability
A549	0.0727
A-427	0.32
